Reference: publication PMC7012052, “Discovery of antimicrobial compounds targeting bacterial type FAD synthetases” (Journal of Enzyme Inhibition and Medicinal Chemistry, 2017)
Counter-ions that a name gives are not always drawn. Like-named read-outs stand apart in the source and are kept apart here.

Columns and labels:
CaFADS RFK activity = biological target: T1, CaFADS RFK activity (Corynebacterium ammoniagenes, UniProt Q59263); experiment: RFK activity of CaFADS in the presence of HTS hits (flavins separated by HPLC); assay type: biochemical; settings: pH 7, read-out: % Residual RFK activity
T1 construct: Recombinant CaFADS was overexpressed in BL21 (DE3) E. coli cells and purified as previously described; made in house; host or cells: E. coli BL21 (DE3)
T1 sequence (Q59263 whole entry): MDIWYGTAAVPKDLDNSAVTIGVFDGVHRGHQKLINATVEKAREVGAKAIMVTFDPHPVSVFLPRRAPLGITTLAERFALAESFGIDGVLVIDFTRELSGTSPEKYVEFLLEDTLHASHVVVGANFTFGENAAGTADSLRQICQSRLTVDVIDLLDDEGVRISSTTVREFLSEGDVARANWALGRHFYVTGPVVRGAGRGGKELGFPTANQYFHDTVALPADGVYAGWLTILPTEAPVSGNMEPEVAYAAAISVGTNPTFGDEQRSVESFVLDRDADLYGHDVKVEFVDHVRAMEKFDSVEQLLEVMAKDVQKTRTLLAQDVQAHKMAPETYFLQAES
Experimental: (§1) Then, the RFK and FMNAT reactions were individually assayed in the presence of the HTS hits at 25 °C. Reaction mixtures contained 50 µM ATP, 5 µM RF, 0.4 µM CaFADS in 20 mM PIPES, pH 7.0, 0.8 mM MgCl2, when assaying the RFK activity, and 50 µM ATP, 10 µM FMN, 0.4 µM CaFADS in 20 mM PIPES, pH 7.0, 10 mM MgCl2 when measuring the FMNAT reaction. […] Finally, reactions were stopped by boiling the samples at 100 °C for 5 min, and the precipitated protein was eliminated through centrifugation. The transformation of RF into FMN or FAD was evaluated through flavins separation by HPLC, as previously described. […] When assaying the HTS hits against the FMNAT activity of SpnFADS, similar conditions were used but samples contained 3 mM sodium dithionite to maintain the flavin in its reduced state. Data were processed as previously reported. All the experiments were performed in triplicate.

CaFADS FMNAT activity = biological target: T2, CaFADS FMNAT activity (Corynebacterium ammoniagenes, UniProt Q59263); experiment: FMNAT activity of CaFADS: residual activity, IC50, inhibition mechanism (HPLC); assay type: biochemical; settings: for remaining activity at 250 µM: pH 7, read-out: % Residual FMNAT activity; for remaining activity at 50 µM: read-out: Residual activity (FMNAT)
T2 construct: Recombinant CaFADS was overexpressed in BL21 (DE3) E. coli cells and purified as previously described; made in house; host or cells: E. coli BL21 (DE3)
T2 sequence (Q59263 whole entry): as above
Experimental: as §1
(§2) Experiments were performed and analysed through HPLC as described above. Positive controls (without any hit compound) were included in every reaction set. DMSO concentration was kept at 2.5% in all samples. All the experiments were performed in triplicate.
All the experiments were carried out in 20 mM PIPES, 10 mM MgCl2, pH 7.0, 2.5% DMSO at 25 °C, being the final reaction volume 500 µl. The reactions were initiated by addition of CaFADS at a final concentration of ∼40 nM, followed by 1 min incubation. The flavin composition of the supernatant was analysed as previously described. All the experiments were performed in triplicate. The effect of the inhibitors on Km and Vmax was determined by fitting the data sets to the Michaelis–Menten model. Additionally, data were globally fit to Lineweaver–Burk equations for competitive, uncompetitive, non-competitive or mixed inhibition, yielding Ki, as well as Ki′ when applying, for each compound (Equations (1–4), respectively).

SpnFADS FMNAT activity = SpnFADS FMNAT activity (Streptococcus pneumoniae, UniProt A0A0H2UPY5); experiment: biochemical; settings: SpnFADS, 25 °C; for IC50: compounds assayed 0–100 μM, read-out: FMNAT activity IC50
Sequence of SpnFADS FMNAT activity (A0A0H2UPY5 entry or part of it): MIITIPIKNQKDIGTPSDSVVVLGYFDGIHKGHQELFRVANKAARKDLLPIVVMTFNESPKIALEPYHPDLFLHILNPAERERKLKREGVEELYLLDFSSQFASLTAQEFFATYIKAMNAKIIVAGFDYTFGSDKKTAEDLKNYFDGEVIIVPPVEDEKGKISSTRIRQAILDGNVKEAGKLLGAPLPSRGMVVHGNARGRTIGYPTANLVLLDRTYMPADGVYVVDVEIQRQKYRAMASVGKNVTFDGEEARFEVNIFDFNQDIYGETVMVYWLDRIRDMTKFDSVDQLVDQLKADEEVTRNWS
Experimental: as §1, §2

SpnFADS RFK activity = SpnFADS RFK activity (Streptococcus pneumoniae, UniProt A0A0H2UPY5); experiment: biochemical
Sequence of SpnFADS RFK activity (A0A0H2UPY5 entry or part of it): as above
Experimental: as §1, §2

[1] = tested on: C. ammoniagenes ATCC 6872; experiment: MIC by resazurin microplate assay (broth microdilution); assay type: cell-based, Corynebacterium ammoniagenes; settings: for MIC: Corynebacterium ammoniagenes, ATCC6872, 16 h
[2] = tested on: M. tuberculosis ATCC 27,294; experiment: as above; assay type: cell-based, Mycobacterium tuberculosis; settings: read-out: Minimal inhibitory concentration (MIC) M. tuberculosis
S. pneumoniae ATCC 49619 = experiment: as above; assay type: cell-based, Streptococcus pneumoniae; settings: read-out: Minimal inhibitory concentration (MIC) S. pneumoniae
[3] = 100 μM of each compound, n = 3, mean ± SD, read-out: FMNAT activity Res. activity
[4] = read-out: RFK activity Res. activity
[5] = read-out: Minimal inhibitory concentration (MIC) C. ammoniagenes
[6] = Mycobacterium tuberculosis, ATCC27, 144 h
[7] = Streptococcus pneumoniae, ATCC49619, 10 h
[8] = SpnFADS, compounds assayed 0–100 μM, 25 °C, read-out: RFK activity IC50

| Molecule | remaining activity at 250 µM (CaFADS RFK activity) [%] | remaining activity at 250 µM (CaFADS FMNAT activity) [%] | activity at 100 µM (SpnFADS FMNAT activity; [3]) [%] | IC50 (SpnFADS FMNAT activity) [µM] | IC50 (SpnFADS RFK activity) [µM] | activity at 100 µM (SpnFADS RFK activity; [4]) [%] | MIC [1, 5] [µM] | MIC [2, 6] [µM] | MIC (S. pneumoniae ATCC 49619; [7]) [µM] | IC50 (CaFADS FMNAT activity) [µM] | remaining activity at 50 µM (CaFADS FMNAT activity) [%] | IC50 (SpnFADS RFK activity; [8]) [µM] | remaining activity at 100 µM (SpnFADS FMNAT activity; [3]) [%] | remaining activity at 100 µM (SpnFADS RFK activity; [4]) [%] | Minimal inhibitory concentration (MIC) C. ammoniagenes ([1]; assayed 0.125–64 μM, 16 h at 37 °C, BHI) [µM] | MIC ([2]; assayed 0.125–64 μM, 6 days at 37 °C, Middlebrook 7H9) [µM] | MIC (S. pneumoniae ATCC 49619; assayed 0.125–64 μM, 10 h at 37 °C, BHI with 4% FBS) [µM] | activity at 100 µM (SpnFADS RFK activity; SpnFADS, 100 μM of each compound, 25 °C, n = 3, mean ± SD, read-out: RFK activity Res. activity) [%] | MIC ([1]; read-out: Minimal inhibitory concentration (MIC) C. ammoniagenes, assayed 0.125–64 μM, 16 h at 37 °C, BHI) [µM] |
| --- | --- | --- | --- | --- | --- | --- | --- | --- | --- | --- | --- | --- | --- | --- | --- | --- | --- | --- | --- |
| CC(C)n1c(/C=C/C(O)CC(O)CC(=O)O)c(-c2ccc(F)cc2)c2ccccc21 (stereo not shown) [HTS hit 37, fluvastatin sodium salt] | ≤ 5 | ≤ 5 | 0 | 7 ± 1 | > 100 | 96 ± 10 | > 64 | > 64 | > 64 | – | – | – | – | – | – | – | – | – | – |
| O=C(O)CCc1nc(-c2ccccc2)c(-c2ccccc2)o1 [HTS hit 43, oxaprozin] | ≥ 75 | ≤ 5 | 100 ± 15 | – | – | 32 ± 3 | – | – | – | 1 ± 0.5 | 20.3 ± 5.2 | 14 ± 2 | – | – | – | – | – | – | – |
| CN1CCCN=C1/C=C/c1cccc(O)c1 [HTS hit 19, oxantel pamoate] | ≥ 75 | ≤ 5 | – | – | – | – | – | – | – | 20.8 ± 2.6 | 43.3 ± 3.9 | – | – | – | – | – | – | – | – |
| Cc1c(Cl)cccc1Nc1ccccc1C(=O)O [HTS hit 2] | ≥ 75 | ≤ 5 | – | – | – | – | > 64 | > 64 | > 64 | 8.9 ± 1 | 41.1 ± 5.2 | > 100 | 100 ± 12 | 78 ± 10 | – | – | – | – | – |
| verteporfin [HTS hit 47] | – | – | – | – | – | – | – | – | – | – | – | – | – | – | 2 to 4 | 8 | 4 | – | – |
| CCCCCCCCCCCCCCCC[N+](C)(C)CCN(Cc1ccc(OC)cc1)c1ncccn1 [HTS hit 9, thonzonium bromide] | ≤ 5 | ≤ 5 | 7 ± 1 | 78 ± 6 | – | – | 2 | 16 | 1 to 2 | – | – | 6 ± 1 | – | – | – | – | – | 0 | < 2 |
